Here are results for 91 molecules from a melting point compilation (Tetko et al.; mined from patent text by program, amines drawn as free bases though some values may be those of a salt).

Broadly, the melting point is the temperature of the solid-liquid transition. `CCCCn1c(=O)n(CCCC)c2cc3c(N4CCN(C(=O)Nc5ccc(Oc6ccccc6)cc5)CC4)ncnc3cc21` came in with a melting point of 134 to 136 °C.

As to `COC(=O)CON1C(=O)c2ccccc2C1=O`, the melting point was 137 to 142 °C.

As for `O=C(Nc1ccc(-n2nc(C(F)(F)F)cc2C(F)(F)F)cc1)c1cccs1`, the melting point is above 230 °C.

`COc1ccc(-c2ccc(O)c(C34CC5CC(CC(C5)C3)C4)c2)cc1C=C1SC(N2CCOCC2)=NC1=O` returned a melting point of 355 to 360 °C.

Turning to `CN1CCN(C2=Cc3cc(Cl)ccc3C(=CC#N)c3ccccc32)CC1`, the melting point lay within 196 to 198 °C.

`Nc1ccccc1C(=O)NN1CCOCC1`: the melting point was found to be 172 °C.

`O=C(Nc1cccc(Cl)c1)c1c(C(F)(F)F)nc2c(C(F)(F)F)cccc2c1O` showed a melting point of 152 °C.

In turn, `CC(C)(C(=O)O)C(=O)Oc1ccc(C(=O)c2ccccc2)cc1` displayed a melting point of 147 to 150 °C.

In turn, `CCc1cc2c(cc1Cl)C=C(C(=O)O)C(C(F)(F)F)O2` (stereo unspecified) gave a melting point of 171 to 172 °C.

On to `COC(=O)N1CCCSC1=C[N+](=O)[O-]`, for which the melting point lay in the range of 93 to 95 °C.

Molecule `Clc1ccc(NN=Cc2ccccc2)cc1` returned a melting point of 122 to 123 °C.

For the molecule `Cc1ccnc(C=NNC(N)=S)c1N`, the melting point was 227 to 228 °C.

As to `CCOC(=O)C(C)=Cc1ccc(Sc2ccncc2)c(C(F)(F)F)c1`, the melting point is above 200 °C.

In the case of `N#Cc1cccc(NC(C(=O)O)c2ccccc2)c1` (stereo unspecified), the melting point fell in the range of 159 to 162 °C.

As to `CN1CCN(CCCNc2ccccc2N)CC1`, the melting point lay within 65 to 67 °C.

Regarding `Cc1cccc(C(=O)NC(C)(C(N)=S)C(C)C)c1` (stereo unspecified), the melting point lay within 108 to 110 °C.

With `O=S(=O)(Nc1ncnc(OCCO)c1-c1ccc(Cl)cc1)c1ccc(C(F)(F)F)cc1`, the melting point lay in the range of 160 to 162 °C.

In the case of `O=C1CC(c2ccc(F)cc2)CC(=O)O1`, the melting point is 99 to 104 °C.

Take `O=C(OC(c1ccccc1)c1ccccc1)C(O)Cc1ccc(F)cc1` (stereo unspecified): the melting point is 52 to 54 °C.

Take `OC(CN1CCNC1=S)c1ccncc1` (stereo unspecified): the melting point is 204 °C.

Regarding `Fc1ccc(C(=C(c2ccccc2)c2ccc(OCCBr)cc2)C(F)(F)F)cc1`, the melting point was 115 to 118 °C.

On to `COc1cc(C)c(C(=O)CCCCCCCCCCO)c(O)c1OC`, for which the melting point turned out to be 81 °C.

`Cc1ccc(C)c(C2C(=O)Oc3c2cc(C(C)(C)C)cc3C(C)(C)C)c1` (stereo unspecified) registered a melting point of 93 to 97 °C.

For `COc1ccc2c(c1)C=C(C(=O)O)CCO2`, the melting point was in the range of 176 to 177 °C.

Regarding `C[C@]12CCC(=O)C=C1CCc1cc(Cl)ccc12`, the melting point was in the range of 94 to 96 °C.

Molecule `CON(C)C(=O)c1cc2cccc(NS(=O)(=O)c3cccs3)c2[nH]1` came in with a melting point of 180 to 181 °C.

In turn, `COC(=O)COc1ccc(Cl)c2c1c1c(n2Cc2ccccc2)CCCC1C(N)=O` (stereo unspecified) had a melting point of 185 to 186 °C.

Take `CN(C)c1c(O)ccc2c1CCC1C2CCC2(C)C(=O)CCC12` (stereo unspecified): the melting point is 155 to 156 °C.

For `CC(C)N(Cc1ccc(COc2cccc3c2CN(C2CCC(=O)NC2=O)C3=O)cc1)C(C)C` (stereo unspecified), the melting point was in the range of 201 to 203 °C.

`CS(=O)(=O)N1CCC[C@@H]1[C@H](CS(=O)(=O)c1ccc(Oc2ccc(OC(F)(F)F)cc2)cc1)N(O)C=O` yielded a melting point of 89.6 to 93 °C.

`CCCC(C)n1c(=O)nc(-n2cccn2)[nH]c1=O` (stereo unspecified) gave a melting point of 99 to 100 °C.

Molecule `N#CCC(=O)c1cc(F)c(F)c(F)c1F` registered a melting point of 55 to 57 °C.

`COc1cc(N)c(Cl)cc1C(=O)N[C@H]1CCNC[C@H]1OC` (relative stereo): the melting point was 184 °C.

For `FC(F)(F)C(F)(F)CCCSCCCCCOc1ccc(C2=C(c3ccccc3)CCCc3ccccc32)cc1`, the melting point lay in the range of 84 to 85 °C.

Regarding `O=C1CCC(=O)N1c1ccncc1`, the melting point was in the range of 232 to 235 °C.

`Cc1c(Nc2c(C#N)cnc3sc(C(=O)O)cc23)ccc2[nH]ccc12` gave a melting point of 287 °C.

Regarding `CN(C)c1ccc(-c2nc(N(C)C)nnc2-c2ccc(F)cc2)cc1`, the melting point lay within 157 to 160 °C.

`C[C@@H]1CN(C(=O)OC(C)(C)C)C[C@H]2Cc3cc(Br)c(CO)nc3N21` showed a melting point of 110 to 112 °C.

`CN=C1C2=C(C=CC1CN(C)c1ccc(C(=O)OC)cc1)C(C)(C)CCC2(C)C` (stereo unspecified) gave a melting point of 275 to 280 °C.

`Cc1ncc(Cn2c(S)nc3ccccc32)o1` displayed a melting point of 153 °C.

With `CC1(C)CCS(=O)(=O)N1`, the melting point is 72 °C.

In the case of `CC(C)N1Cc2cc(N)ccc2N(CCCl)S1(=O)=O`, the melting point lay within 154 to 156 °C.

Take `O=C(CCCCl)Nc1nnc(-c2ccccc2)s1`: the melting point is 159 to 162 °C.

Molecule `CC(=O)Oc1ccc(CCc2ccc(NC(=O)C3=C(O)c4ccccc4SC3)cc2)cc1OC(C)=O` showed a melting point of 214 to 215 °C.

Molecule `N#CN1CCC2(CC1)CN(c1ccccc1Cl)c1ccccc12` registered a melting point of 158 to 160 °C.

Molecule `COc1ccc(C(=O)OC(=O)NC(CO)Cc2ccc(O)cc2)cc1OC` (stereo unspecified) yielded a melting point of 152 to 155 °C.

The molecule `CC(C)c1noc(-c2ncn3c2[C@@H]2CCCN2C(=O)c2c(Cl)cccc2-3)n1` registered a melting point of 187 to 188 °C.

Take `CC(C)(C)OC(=O)N1CCNC(=O)C1Cc1ccccc1` (stereo unspecified): the melting point was 152 to 154 °C.

Turning to `C=CCC1(CC=C)c2cc(Br)ccc2-c2ccc(Br)cc21`, the melting point fell in the range of 149 to 150 °C.

In turn, `O=Cc1cccnc1Nc1ccccc1F` yielded a melting point of 94 °C.

For the molecule `CCNC(=O)Nc1c(Cl)cccc1[Si](C)(C)C`, the melting point fell in the range of 161 to 163 °C.

On to `CCCCCCCNC(=O)Oc1ccc2c(c1)CCCN2C`, for which the melting point turned out to be 60 °C.

Take `COc1cc(CCl)nc(N)n1`: the melting point lay in the range of 89 to 90 °C.

As to `CC(C)(C)N1CCN(c2cc3c(cc2F)c(=O)c(C(=O)O)cn3C2CC2)CC1`, the melting point lay in the range of 257 to 260 °C.

As to `CCCOc1ccc(/C=C/c2nc3c([nH]2)c(=O)n(CC)c(=O)n3CC)cc1`, the melting point is above 270 °C.

As to `CCc1cc([N+](=O)[O-])c(=O)[nH]c1COCc1ccccc1`, the melting point was 157 to 158 °C.

Consider `O=C(CCC(=O)Sc1ccc(O)cc1)Sc1ccc(O)cc1`, for which the melting point lay in the range of 226 to 229 °C.

Turning to `N#Cc1cnn2c(-c3ccc(Cl)cc3)ccnc12`, the melting point was in the range of 244 to 245 °C.

The molecule `Cc1cccc(C2=C(c3ccc(F)c(-c4cn[nH]c4)c3)NN(C(C)C)C2)n1` displayed a melting point of 129 to 136 °C.

As to `CCCn1nc2c(N)nc3ccccc3c2c1CCNC(=O)NC(C)C`, the melting point fell in the range of 197 to 198 °C.

In turn, `O=C(CC1C2CC3CC(C2)CC1C3)Nc1cccc2[nH]ccc12` (stereo unspecified) registered a melting point of 206 to 208 °C.

In turn, `CCNc1nc(C(F)(F)F)nc(NCC)c1[N+](=O)[O-]` yielded a melting point of 60 to 65 °C.

The molecule `CCOCc1nc2c(N)nc3cc(OCCCCCCNS(C)(=O)=O)ccc3c2n1CC(C)(C)NC(=O)NC(C)C` came in with a melting point of 190 to 194 °C.

As for `CC(Cl)(Cl)C(NC(=O)c1ccc(Cl)cc1)NC(=NC#N)Nc1ccc(F)nc1` (stereo unspecified), the melting point lay in the range of 206 to 207 °C.

`COC(=O)c1cc(-c2cc(-c3ccccc3O)nc(NC(=O)c3cccs3)c2C#N)ccc1OC` had a melting point of 271 to 273 °C.

In turn, `CS(=O)(=O)Nc1ccc2c(c1)C(=O)C(Br)CC2` (stereo unspecified) registered a melting point of 87 to 92 °C.

Take `COC(=O)C1=C(COCC(C)n2c(C)nc(C)c2C)Nc2c(c(=O)n(C)c(=O)n2C)C1c1ccccc1Cl` (stereo unspecified): the melting point was in the range of 180 to 182 °C.

Turning to `CC(C)N(CCC(=O)OC1c2ccccc2C(=O)N1c1ccc2ccc(Cl)nc2n1)C(C)C` (stereo unspecified), the melting point came out at 135 °C.

The molecule `Cc1cc(OCc2ccc(-c3ccc(OC(F)(F)F)cc3)nc2C2CC2)ccc1OC(C)(C)C(=O)O` displayed a melting point of 131 to 133 °C.

Regarding `Cc1oc(-c2cccc(C#N)c2)nc1CCl`, the melting point is 100 to 101 °C.

Take `COc1cc(/C=C/C(=O)Oc2ccc(NC(C)=O)cc2)ccc1OC(C)=O`: the melting point was in the range of 246 to 250 °C.

Consider `O=c1n(CCCC2CCCCC2)ccn1-c1ccc([N+](=O)[O-])cc1`, for which the melting point lay within 153 to 156 °C.

`CC(C)Cc1nn(C)c(=O)c2c(S(=O)CCCO)c(Cc3cccc4ccccc34)sc12` (stereo unspecified): the melting point fell in the range of 60 to 65 °C.

Regarding `CC(C)(OCc1n[nH]c2ccccc12)C(=O)O`, the melting point is 135 to 137 °C.

`CCN1CS(=O)c2cccc(Cl)c21` (stereo unspecified) showed a melting point of 94 to 98 °C.

For `NC1CCN(c2ccc3c4c(cccc24)C(=O)N(O)C3=O)C1` (stereo unspecified), the melting point was 238 to 242 °C.

The molecule `CCOC(=O)C1CN(C(=O)OCc2ccccc2)CC1=O` (stereo unspecified) gave a melting point of 56.6 to 59.7 °C.

`COc1ccc(CSc2nnc(-c3ccc4occc4c3)o2)cc1F` displayed a melting point of 134 to 136 °C.

For the molecule `O=CC(=Cc1ccccc1OCc1ccccc1)C(C=O)=Cc1ccccc1OCc1ccccc1`, the melting point lay within 120 to 121 °C.

Take `CC(C)c1cccc(C(C)C)c1NC(=O)NC1CC(C)(C)c2ccccc2C1(C)C` (stereo unspecified): the melting point is 180 to 181 °C.

As to `COC(=O)C1CN=CN(C)C1` (stereo unspecified), the melting point is 93 to 95 °C.

In turn, `O=C(CNc1ccc2[nH]c(=O)[nH]c2c1)N1CCC(Oc2ccc(Cl)cc2)CC1` yielded a melting point of 201 to 205 °C.

In turn, `Nc1c(Cl)cc(C(O)CNCCCCCC(=O)OCCc2ccsc2)cc1Cl` (stereo unspecified) returned a melting point of 71 to 73 °C.

`CCN(CC)C(=O)c1ccc(-c2nc(=O)c3ccccc3s2)nc1`: the melting point came to 193 °C.

On to `COc1cc(N(Cc2cncs2)c2ccc(C(=O)O)cc2)ccc1C(N)=O`, for which the melting point is 197 °C.

In turn, `CCCCCCCCCCCOc1ccc(O)cc1C=O` returned a melting point of 66 to 67 °C.

The molecule `CC1(CCC(=O)CCCc2cccc([N+](=O)[O-])c2)C(=O)CCC1=O` had a melting point of 81 to 83 °C.

For the molecule `Cc1cc(C(=O)NC2=NC(C)(C)CC2(c2ccccc2)c2ccccc2)[nH]n1`, the melting point lay in the range of 193 to 195 °C.

`CS(=O)(=O)N=C(Oc1ccccc1)Oc1ccccc1`: the melting point was in the range of 124 to 126 °C.

On to `COc1cc(Br)c(Br)cc1N1CCN(CCCNc2c(C)c(=O)n(C)c(=O)n2C)CC1`, for which the melting point lay within 153 to 155 °C.

`CC(C)(C)CC(C)(C)c1cc(O)c(Sc2ccccc2)c(Sc2nnnn2-c2ccccc2)c1O` yielded a melting point of 147 °C.
